Measurements from patent publication US5905085A, “Trans cyclopentanyl deazaadenyl analogs useful as immunosuppressants” (Hoechst Marion Roussel, Inc., priority 1997, dated 1999).
pIC50: −log10 of the molar value. Structures can show the parent of a compound that is named as a salt.

What was measured:
[1] = test system: Tumor Necrosis Factor alpha; assay: Inhibition of Tumor Necrosis Factor alpha in LPS-stimulated PBMC (ELISA); assay type: cell-based; conditions: human PBMC adherent cells, 1 μg/ml LPS from E. coli, 18 hours; read-out: IC50 (TNF-α inhibition)
Method: Peripheral blood mononuclear cells (PBMC) are isolated from venous blood collected from healthy volunteers in sodium citrate (5 ml of 3.6% sodium citrate for 45 ml of blood) by density gradient centrifugation of 5 minutes at 1500 rpm. The PBMC are resuspended in about 10 ml of RPMI-1640 with antibiotics. Approximately 2×10^6 cells of PBMC are added to tissue culture plates, incubated for 45-60 minutes at 37° C. with 5% CO2, aspirated, and washed twice by adding about 0.5 ml fresh RPMI-1640 with 10% non-mitogenic FBS (RPMI complete) and shaking for 15 to 30 seconds. 1.0 ml RPMI-1640 is added per well to the remaining adherent cells, which are pretreated with test compound solution about 15 minutes prior to endotoxin stimulation (1 μg/ml lipopolysaccharide from E. coli or solvent concentrations equal to those of test compounds.
Cultures are incubated for 18 hours t 37° C. in 5% CO2. Supernatants are tested from TNF-a using a commercial ELISA kit (Cistron, Pine Brook, N.J.). The IC50 is determined using SOFTmax software program.

[2] = test system: rat macrophage antigen presentation to LEW/N rat T-cell hybridoma (Interleukin-2 production); assay: Regulation of antigen presentation to rat T-cell hybridoma (Interleukin-2 production); assay type: cell-based
Method: Using the method of Ku (Cellular Immunology 130,(1990)) and a Lewis (LEW/N) rat T-cell hybridoma reactive with the protein methylated bovine serum albumin (mBSA), the ability of a compound of formula (1) to regulate M.phi. antigen presentation in vitro may be measured. Peritoneal macrophages obtained from LEW/N rats are plated into tissue culture and treated with 100 ug of mBSA and drug A control is prepared similarly. After a period of 18 hours the cells are washed and incubated with the T-cell hybridoma for an additional 12 hours. Supernatants from these cultures are obtained and measured for content of Interleukin-2, a T-cell derived lymphokine which is produced by activated T-cells. […] Rat macrophage antigen presentation and the subsequent production of Interleukin-2 are inhibited when drug is administered over a concentration range from 0.1 to 100 uM as illustrated in the following table.

[3] = test system: endotoxin-induced septic shock in CFl mice; assay: Regulation of endotoxin lethality (mouse endotoxin lethality model); assay type: in vivo; conditions: 100 mg/kg i.p., pretreated at t = -1 hr; challenge D-galactosamine 18 mg and LPS 50 ng; observed 8-72 hour
Method: Using the method of Silverstein, (J. Exp. Med. 173, 357 (1991)) a mouse endotoxin lethality model may be used to determine if a compound of formula (1) has the ability to inhibit endotoxin-induced septic shock which is dependent on the production of Tumor Necrosis Factor-α (TNF-α). CFl mice pretreated at time (t)=-1 hr with drug are challenged with 18 mg of D-glactoseamine and 50 ng of LPS, then observed for death over an 8-72 hour period.

[4] = test system: MHC class II antigen on rat macrophages; assay: Regulation of MHC class II expression on macrophages (flow cytometry, OX-6/OX-42); assay type: cell-based
Method: Using the method of Edwards (J. of Cell Biochemistry 5E, 155(1991)), the ability of a compound of formula (1) to reduce Major Histocompatibility complex (MHC) class II antigen levels on macrophages (M.phi.) obtained from M.tuberculosis-treated rats may be measured. Cells obtained from treated rats are plated into tissue culture for a period of 4 hours to purify adherent cells, then treated with increasing levels of drug for a period of 18 hours. After this incubation period, cells are scraped from the dishes and stained using flow cytometry analysis with various monoclonal antibodies such as OX-6 a monoclonal antibody specific for MHC class II antigens and OX-42 a monoclonal antibody specific for rat macrophages.

Row | Structure (SMILES) | pIC50 [1] | inhibition at 0.1 µM ([2]; Rattus norvegicus, T-cell, in vitro concentration 0.1 μM) [%] | inhibition at 1 µM ([2]; Rattus norvegicus, T-cell, in vitro concentration 1.0 μM) [%] | inhibition at 10 µM ([2]; Rattus norvegicus, T-cell, in vitro concentration 10.0 μM) [%] | inhibition at 100 µM ([2]; Rattus norvegicus, T-cell, in vitro concentration 100.0 μM) [%] | Rat macrophage antigen presentation and subsequent production of Interleukin-2 ([2]; concentration range from 0.1 to 100 uM) | T-cell activation ([2]; in vitro, mBSA antigen, rat T-cell hybridoma) | protection against endotoxin lethality [3] | OX-6/OX-42 double positive macrophages ([4]; 10 μM, 18 hours, positive control 59%) [%] | inhibition at 10 µM ([4]; Rattus norvegicus, Macrophage, 18 h, read-out: reduction of MHC II antigen expression on rat macrophages in vitro compared to positive control) [%]
1 | Nc1ncnc2c1ncn2[C@@H]1CCC[C@H]1O (relative stereo) [(±)-Trans-1-(9-adenyl)-2-hydroxycyclopentane, reference compound] | 4.65 | – | – | – | – | – | – | – | – | –
2 | Nc1ncnc2c1ncn2[C@@H]1CC[C@@H](O)C1 [(1R,3R)-TRANS-1(9-ADENYL)CYCLOPENTAN-3-OL HYDROCHLORIDE] | 5.05 | 7.6 | 30.9 | 48.7 | 55.3 | inhibited | inhibits T-cell activation | protects against endotoxin lethality | 39 | ~33
3 | Nc1nc(Cl)nc2c1ncn2[C@@H]1CC[C@@H](O)C1 [(1R,3R)-Trans-1-[9-(6-amino-2-cholopurinyl)]cyclopentan-3-ol hydrochloride] | 5.39 | – | – | – | – | – | – | – | – | –
